The text below walks through data of paper PMC5474678 (Journal of medicinal chemistry, 2015).

The structures appear in SMILES notation. Some results are limits rather than exact numbers.

One assay has as its target BRD3 BD1 (Homo sapiens, UniProt Q15059). Briefly: Competitive fluorescence polarization.
For another assay, the target named is BRD4 BD1 (Homo sapiens, UniProt O60885). Briefly: Competitive fluorescence polarization. In general terms: Fluorescence polarisation rises when a labelled molecule tumbles more slowly, as on binding a larger partner.
The target in the next assay is BRD3 BD2 (Homo sapiens, UniProt Q15059). The assay can be described thus: Competitive fluorescence polarization.
In a further assay the target is BRD4 BD2 (Homo sapiens, UniProt O60885). The assay can be described thus: Competitive fluorescence polarization.
Another assay has as its system K562 cells. The assay can be described thus: Cell viability assay. The assay is classed as cell-based. The settings on record: Homo sapiens, K562, 96 h, read-out: IC50 cell growth inhibition K562.
The next assay concerns MV4;11 cells. The assay can be described thus: Cell viability assay. The assay is classed as cell-based. The settings on record: Homo sapiens, MV4-11, 96 h, read-out: IC50 cell growth inhibition MV4.
In the next assay the target is BRD2 BD1 (Homo sapiens, UniProt P25440). The assay can be described thus: Competitive fluorescence polarization.
For another assay, the system named is MOLM-13 cells. Briefly: Cell viability assay. The assay is classed as cell-based. The settings on record: Homo sapiens, MOLM-13, 96 h, read-out: IC50 cell growth inhibition MOLM-13.

Chain of BRD3 BD1 (Q15059 24-144): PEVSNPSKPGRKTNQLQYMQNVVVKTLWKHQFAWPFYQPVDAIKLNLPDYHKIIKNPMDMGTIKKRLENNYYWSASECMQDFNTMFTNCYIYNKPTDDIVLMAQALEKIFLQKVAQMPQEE
Chain of BRD3 BD2 (Q15059 306-417): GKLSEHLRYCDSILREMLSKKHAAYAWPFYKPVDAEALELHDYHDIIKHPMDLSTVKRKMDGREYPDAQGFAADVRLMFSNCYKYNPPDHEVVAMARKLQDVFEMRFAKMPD
Chain of BRD2 BD1 (P25440 72-205): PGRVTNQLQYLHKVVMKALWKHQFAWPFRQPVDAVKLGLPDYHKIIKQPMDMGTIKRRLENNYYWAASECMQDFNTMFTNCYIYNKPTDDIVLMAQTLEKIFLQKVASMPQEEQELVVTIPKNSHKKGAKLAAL

By Ki is commonly meant the dissociation constant of the complex between target and ligand, obtained from inhibition or displacement. High values mean lower affinity, low ones higher affinity. One may read the IC50 as the concentration that inhibits the measured activity by half. For `COc1cc2c(cc1-c1c(C)noc1C)[nH]c1ccnc(-c3c(-c4ccccc4)n[nH]c3C)c12` [Compound 19, 4-(8-Methoxy-1-(5-methyl-3-phenyl-1H-pyrazol-4-yl)-5H-pyrido[4,3-b]indol-7-yl)-3,5-dimethyl-isoxazole], the Ki was determined as 10.4 ± 1 nM at BRD3 BD1; 26.9 ± 1 nM at BRD4 BD1; 9.4 ± 1 nM at BRD3 BD2; 38 ± 2.2 nM at BRD4 BD2; 12.2 ± 1.7 nM on BRD2 BD1. Further, the IC50 on BRD4 BD1 was 80.6 ± 1 nM; on BRD4 BD2, 129 ± 45 nM; with K562 cells, over 2000 nM; in the assay with MV4;11 cells it was 34 ± 15 nM; in the assay on MOLM-13 cells, 144 ± 31 nM.
